Assay: Electrophysiological Assay: Current record was obtained by an automated patch clamp system IonWorks Quattro (Molecular Devices Corporation) in Population Patch Clamp mode. The operation was conducted in accordance with the operating procedure of the system. A Dulbecco's phosphate buffer containing calcium and magnesium (Sigma) was used as an extracellular fluid, and a low Cl-buffer (100 mM K-gluconate, 40 mM KCl, 3.2 mM MgCl2, 5 mM EGTA, 5 mM Hepes, pH 7.3) was used as an intracellular fluid. A test compound was dissolved in dimethylsulfoxide (DMSO) to prepare a 30 mM stock solution, so as to produce 4-fold serial dilutions with the extracellular fluid for attaining a DMSO concentration of 0.3% in measurement.The hNav 1.7/β1/β2 cells cultured to a 70-80% confluent state in a T150 flask (Sumilon) were washed with PBS and subsequently with versene (Invitrogen Corp.), and collected by allowing to react with 0.05% trypsin (Invitrogen Corp.) at 37° C. for 3 minutes. After washing with a culture medium, the resultant cells were suspended in an extracellular fluid at a concentration of […] so as to be used for the measurement. The cell membrane was perforated by using an intracellular fluid including 100 ug/ml amphotericin B (Sigma). Current response was obtained at a sampling frequency of 10 kHz. […]
Format: cell-based

IC50: 100 nM
Compound: Cc1c(O[C@H]2CCCC[C@@H]2c2c[nH]nc2N)ccc(S(=O)(=O)Nc2ccncn2)c1F

Source: ChEMBL document CHEMBL5725201, “Cycloalkane derivatives” (2016)
